According to the NIST ThermoML archive (doi:10.1016/j.jct.2006.03.004):
± gives the expanded uncertainty stated by the source.

Details: Liquid

FCC(F)(F)F [1,1,1,2-tetrafluoroethane]
vapor or sublimation pressure (282.55 K): 404 ± 2.7 kPa | vapor or sublimation pressure (293.32 K): 572.6 ± 3.7 kPa | vapor or sublimation pressure (303.24 K): 773.3 ± 5 kPa | vapor or sublimation pressure (312.66 K): 1002.2 ± 6.5 kPa | vapor or sublimation pressure (322.82 K): 1304.9 ± 8.3 kPa
